Test results taken from patent US5641793A, “Pyridine compounds which have useful pharmaceutical activity” (Zeneca Limited, priority 1994, dated 1997).

What was measured:
endothelin receptor = test: Test B: inhibition of the relaxant response to endothelin-1 in guinea-pig isolated taenia coli; conditions: antagonism of endothelin-1 relaxation, initial test concentration 20 μM
Procedure: The endothelin receptor antagonist activity of compounds of formula I may be assessed in vitro in isolated tissues by their ability to inhibit the relaxant response to endothelin-1 in the guinea-pig isolated taenia coli. Guinea pigs of either sex and weight >250 g are killed by cervical dislocation and the caecum removed and placed in cold oxygenated Krebs solution. Strips of taenia coli are dissected out and approximately 4 cm lengths set up for isotonic recording in a 20 ml organ bath containing oxygenated Krebs solution at 32° C. After a […] equilibration period to allow the tissue to spontaneously develop an increased tone, a cumulative concentration-response curve (relaxation) is constructed to endothelin-1 (0.3-10 nM). The tissue is then washed for a period of at least 90 minutes before construction of a second concentration-response curve to endothelin-1 in the presence of the test compound. The test compound is added to the organ bath (at an initial concentration of 20 μM) at least 30 minutes before constructing the second concentration-response curve to endothelin-1. The endothelin-1 concentration ratio for each experiment is determined by comparing the most parallel portions of the control and drug treated concentration-response curves. From this a pA2 is calculated: pA2 =-log[molar drug concentration]+log[concentration ratio-1].

[1] = tested on: Human ETA or ETB receptors; test: Test A: inhibition of [125I]-Endothelin-1 binding to MEL cell membranes expressing recombinant receptor; conditions: inhibition of 30 pM [125I]-Endothelin-1 binding; receptor sub-type (ETA or ETB) not given
Description: The endothelin receptor antagonist activity of compounds of formula I may be assessed in vitro by their ability to inhibit binding of [^125 I]-Endothelin-1 to its receptors. Human ETA or ETB receptors (sub-types of the endothelin receptor) were expressed in Mouse Erythroleukemic Cells (MEL cells) by using standard molecular techniques (for example, as described by Sambrook J., Fritsch E. F. & Maniatis T. (1989) Molecular Cloning: A Laboratory Manual, 2nd Edition, Cold Spring Harbor Press, U.S.A.). cDNA sequences encoding the human ETA and ETB receptor (Hosoda K. et al (1991), FEBS Lett., 287, 23-26 and Sakamoto A. et al, (1991), Biochem. Biophys Res. Comm., 178, 656-663) are subcloned into pBluescript vector followed by insertion into the MEL cell expression vector pEV as described by Needham et al (1992), Nuc. Acids Res., 20, 997-1003. […]
[^125 I]-Endothelin-1 binding to MEL cell membranes was measured in incubation buffer containing 50 mM Tris HCl, 1 mM CaCl2, 0.05% polyoxyethylenesorbitan monolaurate, 0.1% Bovine Serum Albumin (BSA), 0.02% sodium azide pH 7.4 at 30° C. after 180 minutes incubation. […] Nonspecific binding was measured in the presence of 100 nM unlabelled Endothelin-1. […] The filter discs were punched out and counted in a gamma counter. Compounds are tested in triplicate over a range of concentrations and IC50 (or pIC50) values calculated.

pIC50 in test A [1]: 6.5
Compound: Cc1cc(Br)cnc1NS(=O)(=O)c1cccc2c(N(C)C)cccc12 [Example 6, 5-(dimethylamino)-N-(5-bromo-3-methyl-2-pyridyl)-1-naphthalenesulphonamide]
pA2 in test B (endothelin receptor): 6.6
